Patent US7741341B2, “Benzimidazole-derivatives as factor Xa inhibitors” (sanofi-aventis Deutschland GmbH, priority 2003, dated 2010)

Target: T1, human factor Xa (Homo sapiens, UniProt P00742)
T1 construct: human factor Xa (Enzyme Research Laboratories, Inc; South Bend, Ind.); purchased Enzyme Research Laboratories, Inc; South Bend, Ind
Assay: Factor Xa assay (chromogenic, substrate S-2765)
Format: biochemical
Conditions: read-out: Ki(FXa)
Outline: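 Purified human factor Xa (0.5 nM final) in TBS-PEG was preincubated 10 min with compound in DMSO-containing buffer. The reaction was started with chromogenic substrate S-2765 at 140 μM. IC50 was taken from the concentration series.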

T1 sequence (P00742 235-488 limits assumed): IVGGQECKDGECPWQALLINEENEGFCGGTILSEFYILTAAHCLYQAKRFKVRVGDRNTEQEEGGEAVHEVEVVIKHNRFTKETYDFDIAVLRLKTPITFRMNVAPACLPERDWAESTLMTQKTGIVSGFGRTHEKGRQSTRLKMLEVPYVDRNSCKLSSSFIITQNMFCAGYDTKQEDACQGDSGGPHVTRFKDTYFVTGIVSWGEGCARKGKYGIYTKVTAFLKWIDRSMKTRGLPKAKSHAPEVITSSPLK
T1 sequence (P00742 41-179 partner limits assumed): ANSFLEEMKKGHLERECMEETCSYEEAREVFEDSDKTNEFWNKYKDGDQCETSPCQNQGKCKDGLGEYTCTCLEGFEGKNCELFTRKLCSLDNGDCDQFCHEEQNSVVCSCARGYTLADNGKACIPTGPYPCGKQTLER

SMILES	Ki [nM]
CCOCCOc1cccc2c1nc(C(=O)NC1CCN(C(C)C)CC1)n2CC(=O)Nc1ccc(Cl)cn1 [Example 109, 1-[(5-Chloro-pyridin-2-ylcarbamoyl)-methyl]-4-(2-ethoxy-ethoxy)-1H-benzoimidazole-2-carboxylic acid (1-isopropyl-piperidin-4-yl)-amide]	3.5
CC(C)N1CCC(NC(=O)c2nc3c(OCCO)cccc3n2CC(=O)Nc2ccc(Cl)cn2)CC1 [Example 110, 1-[(5-Chloro-pyridin-2-ylcarbamoyl)-methyl]-4-(2-hydroxy-ethoxy)-1H-benzoimidazole-2-carboxylic acid (1-isopropyl-piperidin-4-yl)-amide]	4
